Values of other authors, collected in patent publication US8541630B2, “Process for producing dimethyl ether from methanol” (China Petroleum & Chemical Corporation, priority 2008, dated 2013).
Read-outs that look alike come from different tables or passages of the source.

Solubility (solvent Acetone (25° C.)): 11.83 wt % | Solubility (solvent Benzene (25° C.)): 15.29 wt % | Solubility (solvent CCl4 (25° C.)): 16.33 wt % | Solubility (solvent Chlorobenzene (106 kPa, 25° C.)): 18.56 wt % | Solubility (solvent Gasoline, 0° C.): 19 wt % | Solubility (solvent Gasoline, 25° C.): 7 wt % | Solubility (solvent Gasoline, −40° C.): 64 wt % | Solubility (solvent Methyl acetate (93.86 kPa, 25° C.)): 11.1 wt % | Solubility (solvent Water (24° C.)): 35.3 wt %
Compound: COC [DME, Dimethyl ether]
